Entries after “also recorded” stand apart in the source; their conditions may differ.
Legend:
[1] = system: RT112 human bladder cancer cells; test: Time lapse photomicrography, RT112; assay type: cell-based; settings: RT112, 200 μM THR53, Ham's F12 + 10% FCS
Description: (§1) Progressive morphological changes in dying H460 cells exposed to 200 μM THR53 [additional file 1], contrasted with progressive cell division in untreated H460 cells [additional file 2] are shown as videos. Immortalised MRC5-hTERT fibroblasts, were unaffected by exposure to 200 μM THR53 except for some generalised slowing of growth (Figure 5A), [additional file 3] as compared to control, untreated, MRC5-hTERT cells [additional file 4]. RT112 cells were more sensitive to THR53 than H460 cells and died within 30 - 40 hours as compared to 96 hours for H460 and the majority of other human cancer cell lines investigated.
(§2) Figure 5 Time Lapse Photomicrography of MRC5-hTERT, RT112 human bladder cancer and […] human non-small cell lung cancer following exposure toTHR53. Cells were incubated in Ham's F12 + 10% FCS (control medium) or medium + 200 μM THR53. Morphological changes of vacuolation + cellar swelling are seen in RT112 at 33 hours after exposure to THR53 and in H460 at 90 hours after exposure to THR53. There was no evidence of cell blebbing or fragmentation. (see also videos)

[2] = system: H460 human non-small cell lung cancer cells; test: Time lapse photomicrography, H460; assay type: cell-based; settings: H460, 200 μM THR53, Ham's F12 + 10% FCS
Description: as §1, §2

[3] = system: MRC5-hTERT immortalised fibroblasts; test: Time lapse photomicrography, MRC5-hTERT; assay type: cell-based, human; settings: 200 μM; except for some generalised slowing of growth
Description: as §1, §2

[4] = system: MRC5-hTERT immortalised fibroblasts; test: Necrosis assay by Trypan Blue exclusion, MRC5-hTERT; assay type: cell-based
Description: Necrosis Assay Cells were plated in triplicate in 96 well plates at concentrations of 500 cells per well (HT1299, MCF-7) or 1000 cells per well (H460, MRC5-hTERT) in the presence or absence of the relevant compound and assessed by Trypan Blue exclusion At 2,3,4 and 7 days after plating. To assay, cells were trypsinised off, stained with trypan blue in isotonic medium and live and dead cells separately counted visually by haemocytomter. Each data point is the mean of results from triplicate wells (Solid lines - Live cells, Broken lines - Dead Cells; Blue - Control, Red - THR53 200 μM).

[5] = system: H460 human non-small cell lung cancer cells; test: H460 cell killing at the dose chosen for assay comparison; assay type: cell-based; settings: 100 μM, by 96 hours
Description: In order to probe the mechanism of PRGPRP analogue induced cell death, three assays were conducted on H460 human non-small cell lung cancer cells over a period of 96 hours following exposure to THR53 (Figure 7A). Total cellular protein was measured by sulphorhodamine B [31], mitochondrial oxidation/reduction was measured by Alamar Blue assay and cellular ATP level was measured by luciferase activity. A dose of 100 μM THR53 at which 50% of H460 cells were killed by 96 hours was chosen for assay comparison. […] An assay for autophagy was thus carried out which utilises a proprietary reagent (Cyto-ID Green) that specifically labels autophagolysosomes, co-localising with LC3, a specific autophagosome marker. 25 μM Chloroquine was used as a positive control agent known to induce autophagy. […] However, no difference in the mean fluorescent intensity was seen following treatment with 100 μM THR53 at either 72 h or 96 h, when compared with control.

NCI-H460 cells [6] = test: Cellular ATP levels (CellTiter-Glo assay); assay type: cell-based, human; settings: H460, 100 μM THR53, between 48 and 96 hours, CellTiter-Glo luminescence
Description: Cellular ATP levels (CellTiter-Glo assay) Cells were grown, seeded and compound-treated as for the alamar Blue assay. A volume of the CellTiter-Glo reagent equal to the volume of cell culture media was added to the cells. Plates were mixed for 2 min on an orbital shaker to induce cell lysis before the plate was incubated at room temperature for 10 min to stabilize the signal. The luminescent signal was measured and the media only background was subtracted.

NCI-H460 cells [7] = test: Total cellular protein (sulphorhodamine B assay); assay type: cell-based, human; settings: H460, 100 μM THR53, up to 96 hours, sulphorhodamine B
Description: Control medium/alamar blue were removed and 200 μl PBS was added. […] Wells were rinsed with water and allowed to air dry. Cells were then stained in 0.4% SRB solution, before rinsing with 1% acetic acid and air drying. Incorporated dye was solubilised in 10 mM Tris and absorbance measured at 565 nm and 690 nm. Absorbance measurements at 690 nm were subtracted from the 565 nm readings to correct for multi-well plate absorbance.

## Cyc-[FPPRGPRPVKLALKLALK] (head to tail) [THR53, cyclic amphiphilic analogue, Cyc-[…]]
[1]
  time at which morphological changes of vacuolation + cellular swelling are seen: 33 hours
  time to cell death: 30 to 40 h
[2]
  time at which morphological changes of vacuolation + cellular swelling are seen: 90 hours
  time to cell death: 96 h
[3]
  effect on MRC5-hTERT fibroblasts, time lapse: unaffected
[4]; 200 μM (Figures 4A and 5A)
  cytotoxicity to MRC5-hTERT immortalised fibroblasts: not cytotoxic
[4]; MRC5-hTERT, 200 μM, 2, 3, 4 and 7 days after plating, triplicate wells
  necrosis / viability by trypan blue exclusion: unaffected; also recorded: not in MRC5-h-TERT immortalised fibroblasts
[5]
  H460 cells killed: 50%
NCI-H460 cells [6]
  ATP levels: progressive diminution
NCI-H460 cells [7]
  total cellular protein: without change

Reference: paper PMC3126777, “Selective anticancer activity of a hexapeptide with sequence homology to a non-kinase domain of Cyclin Dependent Kinase 4” (Molecular Cancer, 2011)
